# Residues, ends and D or L forms follow the SMILES beside them.
# Assays:
# [1] = General examination: body weight and physical state during peptide treatment; type: in vivo, mice; settings: s.c. depot pellets 25 nmol/day for 35 days; for effect on body weight: FIG. 1A, female C57BI6 mice
# Description: (§1) All in vivo studies for characterization of peptides (stereology and behavioral analysis) were performed on 8-10-month-old female retired breeders of C57BI6 background. Animals were acclimatized for at least 3 weeks to exclude occasional pregnant mice from the studies. Mice were group-housed (3 animals per cage) with a 12:12 hours light/dark cycle and with free access to food and water. All procedures were conducted in accordance with approved protocols from our institutional Animal Welfare Committee. For the peptide treatment, mice (8 animals/group) received subcutaneous implants of long term continuous release depot pellets containing Peptide021 or Peptide022 at 25 nmol/day for 35 days of continuous dosing (Innovative Research of America, Sarasota, Fla.). For the control group (8 animals), pellets consisted of the carrier polymer only. Mice were anesthetized with 2.5% Avertin (0.38 ml for a 25 g animal). Under sterile conditions, pellets were implanted subcutaneously along the anterolateral aspect of the right shoulder with a precision trochar (Innovative Research of America, Sarasota, Fla.). After recovery of anesthesia, animals were transferred to the animal colony. […] To investigate neurogenesis, BrdU (Sigma, St. Louis, Mo.) was given as two daily i.p. injections (100 mg/kg/dose) for five days starting on day 2 of peptides treatment.
# The physical state and condition of animals were carefully monitored throughout the treatment by evaluating grooming, physical state and clasping reflex. Body weight was also recorded.
# mice [2] = test: Open field familiarization session (locomotor/exploratory activity and anxiety); type: in vivo; settings: for anxiety level of mice: FIG. 1B, time in centre of arena, first 5 minutes, s.c. pellets 25 nmol/day; for effect on exploratory activity: FIG. 1C, open field, s.c. pellets 25 nmol/day for 35 days
# Description: as §1
# In the one-trial object recognition task, animals are exposed to two different objects which they have to identify as novel or familiar based on the memory of an earlier experience with one of the two objects they encountered in the same open field. The familiar object is explored shorter than the novel encountered one because the representation of the former is still available in memory. The one-trial object recognition task tests some aspects of episodic memory but is limited to memory of an object (what), the location of an object (where), and the context in which is was encountered (which). However, the temporal dimension of the episode remains inaccessible to the experimentator, and because of this reason this task in animals is considered a test of short term memory (Ennaceur, 2010). The test used was an adaptation of the procedure previously described by Sargolini and collaborators (2003). The testing apparatus was a classic open field (i.e. a PVC square arena, 50×50 cm, with walls 40 cm high). The open field was placed in a part of the room separated from the experimentator with a black opaque curtain. The open field was surmounted by a video camera connected to a computer. Three objects were employed in this task. The general procedure consisted of three different phases: a familiarization phase (one session of 20 min), a sample phase, and a test phase. […] Object discrimination (OD) during the test phase was evaluated as […]
# mice [3] = test: One-trial object recognition test; type: in vivo; settings: FIG. 1E-F; p<0.05, Student t-test; s.c. pellets 25 nmol/day
# Description: All in vivo studies for characterization of peptides (stereology and behavioral analysis) were performed on 8-10-month-old female retired breeders of C57BI6 background. Animals were acclimatized for at least 3 weeks to exclude occasional pregnant mice from the studies. Mice were group-housed (3 animals per cage) with a 12:12 hours light/dark cycle and with free access to food and water. All procedures were conducted in accordance with approved protocols from our institutional Animal Welfare Committee. For the peptide treatment, mice (8 animals/group) received subcutaneous implants of long term continuous release depot pellets containing Peptide021 or Peptide022 at 25 nmol/day for 35 days of continuous dosing (Innovative Research of America, Sarasota, Fla.). For the control group (8 animals), pellets consisted of the carrier polymer only. Mice were anesthetized with 2.5% Avertin (0.38 ml for a 25 g animal). […]
# In the one-trial object recognition task, animals are exposed to two different objects which they have to identify as novel or familiar based on the memory of an earlier experience with one of the two objects they encountered in the same open field. […] Object discrimination (OD) during the test phase was evaluated as […]
# mice [4] = test: Spatial reference memory task in the water maze; type: in vivo; settings: for effect on swim speed: FIG. 1D, water maze, s.c. pellets 25 nmol/day for 35 days; for performance in the learning of spatial memory task in water maze: FIG. 1G, p<0.001, two-way ANOVA, s.c. pellets 25 nmol/day
# Description: as §1
# Spatial reference learning and memory were evaluated in the water maze using a procedure adapted from that previously described by Morris et al. (1982). The test required that mice used a spatial navigational strategy based on a spatial representation of the environment to find a fixed submerged escape platform. The procedure was performed in a 180 cm diameter circular tank. The pool was filled with water (21±1)° C. made opaque by adding white non-toxic paint. Acquisition started with the escape platform (15 cm diameter submerged 1 cm below water surface) in the Northwest quadrant and each animal was given 90 s to find the platform. […] At the end of each trial, the mouse was left on the platform for 20 s, then dried and returned to its home cage until the next trial. Five such acquisition trials were given on each day for four consecutive days. A test for retention, or probe trial (PT), was given 24 hours later. During the probe trial the mouse was allowed to swim in the tank without the escape platform for 60 seconds. This was followed by second and third probe trials 15 and 30 days after the first probe trial. The measures of learning were the time and distance covered to reach the escape platform. For the probe trial, the tank was divided into four imaginary quadrants and a small zone where the escape platform had been. The measures of retention were calculated index as the ratio of time spent or distance covered in target quadrant over them in the three other quadrants. Mouse behavior in the water maze was monitored by a Samsung Digital Camera (SDC 4304) mounted to the ceiling and tracked and timed by a SMART (Pan Lab/San Diego Instruments) version 2.0.14 software. Immunohistochemistry
# [5] = test system: BrdU-positive and BrdU/NeuN-double-positive cells in the dentate gyrus; test: Neurogenesis in the dentate gyrus (BrdU / NeuN immunohistochemistry, unbiased stereology); type: in vivo, mice; settings: p<0.05, s.c. pellets 25 nmol/day
# Description: as §1
# At the end of the behavioral experiment, animals were anesthetized with an overdose of sodium pentobarbital (50 mg/kg) and transcardially perfused with 0.1 M phosphate buffered saline (PBS). After perfusion, the brains were removed from the skull, the left hemisphere was immediately frozen for future biochemical analysis and the right hemisphere was immersion fixed in 4% paraformaldehyde in 0.1 M PBS for at least 24 hours at room temperature. Tissues were equilibrated and stored in 30% sucrose solution at 4° C. until sectioning. The brains were sectioned sagittaly on a freezing sliding microtome at 40 μm through the entire hippocampus and the sections were stored in glycol anti-freeze solution (Ethylene glycol, glycerol and 0.1 M PBS in 3:3:4 ratio) at −20° C. until further processing. For double labeling of BrdU and NeuN, brain sections were pretreated with 2 M HCl at 37° C. for 30 min and neutralized with 0.1 M borate buffer (pH 8.5) for 10 minutes. Tissue sections were incubated first for 30 min with blocking buffer (4% normal goat serum +0.1% Tween-20 in PBS) and then overnight at 4° C. in the presence of BrdU (Millipore Corporation, Billerica, Mass.) and NeuN (Millipore Corporation) antibodies diluted 1:400 and 1:100, respectively. […] Neurogenesis in the dentate gyrus was evaluated by counting the number of BrdU-positive and BrdU/NeuN-double-positive cells in the dentate gyrus (DG). The number of positive cells was determined in every fifth section in a series of 40 μm sagittal sections throughout the DG using unbiased sterology (West et al., 1991). All BrdU-positive cells in the subgranular zone (SGZ) and granule cell layer (GCL) were counted using a fluorescent microscope (Nikon Eclipse 90i, Nikon Corporation, Japan). Double labeled cells were assessed by a confocal imaging system (D-Eclipse C1, Nikon Corporation). […] For each brain, at least 100 cells were counted based on coefficient of error determinations. […]
# synaptophysin = test: Expression of synaptophysin in DG (immunohistochemistry, mean optical density); type: in vivo, mice; settings: FIG. 3A; p<0.001; s.c. pellets 25 nmol/day
# Description: (§2) All in vivo studies for characterization of peptides (stereology and behavioral analysis) were performed on 8-10-month-old female retired breeders of C57BI6 background. Animals were acclimatized for at least 3 weeks to exclude occasional pregnant mice from the studies. Mice were group-housed (3 animals per cage) with a 12:12 hours light/dark cycle and with free access to food and water. All procedures were conducted in accordance with approved protocols from our institutional Animal Welfare Committee. […]
# (§3) At the end of the behavioral experiment, animals were anesthetized with an overdose of sodium pentobarbital (50 mg/kg) and transcardially perfused with 0.1 M phosphate buffered saline (PBS). […] Neurogenesis in the dentate gyrus was evaluated by counting the number of BrdU-positive and BrdU/NeuN-double-positive cells in the dentate gyrus (DG). The number of positive cells was determined in every fifth section in a series of 40 μm sagittal sections throughout the DG using unbiased sterology (West et al., 1991). All BrdU-positive cells in the subgranular zone (SGZ) and granule cell layer (GCL) were counted using a fluorescent microscope (Nikon Eclipse 90i, Nikon Corporation, Japan). Double labeled cells were assessed by a confocal imaging system (D-Eclipse C1, Nikon Corporation). […] For each brain, at least 100 cells were counted based on coefficient of error determinations. […]
# synapsin I = test: Expression of synapsin I in DG (immunohistochemistry, mean optical density); type: in vivo, mice; settings: FIG. 3B; p<0.001; s.c. pellets 25 nmol/day
# Description: as §2, §3
# [6] = test system: LIF-induced STAT3 phosphorylation at Tyr705; test: Analysis of STAT3 phosphorylation in HepG2 cells; type: cell-based, human; settings: FIG. 4, different peptide concentrations with 0.25 nM LIF for 15 min, Western blot
# Description: To investigate the molecular mechanism of action of Peptide021 in LIF signaling, HepG2 human hepatoma cell (ATCC, Manassas, Va.) at 80% confluence were treated with different concentrations of Peptide021 and with 0.25 nM LIF (Chemicon International Inc., Temecula, Calif.) for 15 min. The cells were lysed and subjected to Western blots developed with antibodies anti-phospho-Tyr 705 STAT3 and anti-STAT3 (Cell signaling Technology, Danvers, Mass.).
# HepG2 cells were treated with different concentrations of Peptide 021 together with 0.25 nM LIF for 15 min, and then the STAT3 phosphorylation at Tyr705 (pY-STAT3) was determined by Western blots. The pY-STAT3 value was normalized to total STAT3 expression. Data are presented as percentages of the value from cells treated with 0.25 nM LIF alone (100%). *p<0.01.
structure (smiles),measurement,setting,value
"CC(=O)N[C@@H](CC(=O)O)C(=O)NCC(=O)NCC(=O)N[C@@H](CC(C)C)C(=O)N[C@]12CC3CC(C1)C[C@@](C(N)=O)(C3)C2 [Peptide 021, Ac-Asp-Gly-Gly-Leu-^AGly-NH2] (HELM PEPTIDE1{[ac].D.G.G.L.[NC(=O)[C@]12CC3CC(C[C@](N[*:1])(C3)C1)C2]}$$$$V2.0)",effect on body weight,[1],did not induce any effect
same,complications associated with the implantation and treatment,[1],No complications
same,anxiety level of mice,mice [2],reduced
same,effect on exploratory activity,mice [2],did not induce any effect
same,ability to discriminate a new object versus a familiar object,mice [3],significantly improved
same,effect on swim speed,mice [4],did not induce any effect
same,performance in the learning of spatial memory task in water maze,mice [4],increased performance
same,effect in second probe trial (PT2),"mice [4]; FIG. 1H, after 15 days of the end of treatment",no longer effect
same,effect in third probe trial (PT3),"mice [4]; FIG. 1H, after 30 days of the end of treatment",no longer effect
same,performances in the first probe trial,"mice [4]; FIG. 1H, probe trial 24 hours after acquisition, p<0.05",improved performances
same,numbers of BrdU positive cells in the GCL,[5]; FIG. 2B,significantly increased
same,numbers of BrdU positive cells in the SGZ,[5]; FIG. 2B,significantly increased
same,numbers of BrdU positive cells in the total DG,[5]; FIG. 2B,significantly increased
same,number of BrdU/NeuN positive cells in the GCL,[5]; FIG. 2C,significantly increased
same,number of BrdU/NeuN positive cells in the total DG,[5]; FIG. 2C,significantly increased
same,expression of synaptophysin in the DG,synaptophysin,significantly promoted
same,expression of synapsin I in the DG,synapsin I,significantly promoted
same,LIF-induced STAT3 phosphorylation (pY-STAT3 normalized to total STAT3),[6],Inhibition
"CC(C)C[C@H](NC(=O)CNC(=O)CNC(=O)[C@H](CC(=O)O)NC(=O)C12CC3CC(CC(C3)C1)C2)C(=O)NC12CC3CC(C1)CC(C(N)=O)(C3)C2 [Peptide 022, 1-AdCO-DGGL^AG-NH2] (HELM PEPTIDE1{[O=C(C12CC3CC(CC(C3)C1)C2)[*:2]].D.G.G.L.[NC(=O)C12CC3CC(CC(N[*:1])(C3)C1)C2]}$$$$V2.0)",effect on body weight,[1],did not induce any effect
same,complications associated with the implantation and treatment,[1],No complications
same,anxiety level of mice,mice [2],reduced
same,effect on exploratory activity,mice [2],did not induce any effect
same,effect on swim speed,mice [4],did not induce any effect
same,performance in the learning of spatial memory task in water maze,mice [4],increased performance

# Reference: patent US20130165625A1, “PEPTIDES INCORPORATING 3-AMINOADAMANTANE CARBOXYLIC ACIDS ENHANCE SYNAPTIC PLASTICITY AND ACT AS NEUROGENIC AGENTS” (JUSTUS-LIEBIG-UNIVERSITAT GIESSEN, priority 2010, published 2013)
